# Measured values from patent publication US20130072415A1, “DETERGENT COMPOSITIONS COMPRISING […] BLEND RATIOS of ISOPRENOID-BASED SURFACTANTS” (The Procter & Gamble Company, priority 2011, published 2013).
# Assay: Dynamic Interfacial Tension (DIFT) analysis, ascending canola oil drop in aqueous detergent phase
# Format: physicochemical
# Conditions: 100 ppm surfactant, 34 ppm Calcium/Magnesium water hardness (3:1), 22° C., pH 8-8.5
# Description: The surfactant systems in Table 3 are analyzed via DIFT method. Ingredients listed are in ppm concentration as would be common in a detergent wash water solution. Analysis conditions are in water of 103 ppm Calcium/Magnesium water hardness level (3:1 Calcium:Magnesium), 21° C., pH 8-8.5. • Formula E contains a commercial branched Neodol® 67 AS surfactant. • Formula F contains 90A:10B AS of the present invention substituted for branched Neodol® 67 AS surfactant. • Formulas G and H are common detergent surfactant mixtures containing no branched alkyl sulfate surfactants.
# The surfactant systems in Table 5 are analyzed via DIFT method. Ingredients listed are in ppm concentration as would be common in a detergent wash water solution. Analysis conditions are in water of 34 ppm Calcium/Magnesium water hardness level (3:1 Calcium:Magnesium), 22° C., pH 8-8.5.
# Method: Dynamic Interfacial Tension Analysis. Dynamic Interfacial Tension (DIFT) analysis is performed on a Krüss® DVT30 Drop Volume Tensiometer (Krüss USA, Charlotte, N.C.). The instrument is configured to measure the interfacial tension (IFT) of an ascending oil drop in aqueous detergent (surfactant) phase. The oil used is canola oil (Crisco Pure Canola Oil manufactured by The J.M. Smucker Company). The aqueous detergent and oil phases are temperature controlled at 22° C. (+/−1° C.), via a recirculating water temperature controller attached to the tensiometer. A dynamic interfacial tension curve is generated by dispensing the oil drops into the aqueous detergent phase from an ascending capillary with an internal diameter of 0.2540 mm, over a range of flow rates and measuring the interfacial tension at each flow rate. Data is generated at oil dispensing flow rates of 500 uL/min to 1 uL/min with 2 flow rates per decade on a logarithmic scale (7 flow rates measured in this instance). Interfacial tension is measured on three oil drops per flow rate and then averaged. Interfacial tension is reported in units of mN/m. Surface age of the oil drops at each flow rate is also recorded and plots can be generated either of interfacial tension (y-axis) versus oil flow rate (x-axis) or interfacial tension (y-axis) versus oil drop surface age (x-axis). […] Example of analysis of a 100 ppm surfactant concentration, with water hardness (3:1 Ca:Mg) of 103 ppm, 22° C., pH 8: Density settings for 22° C. are set at 0.916 g/ml for Canola Oil and 0.998 g/ml for aqueous surfactant phase (assumed to be the same as water since dilute solution). To a 100 ml volumetric flask is added 1.00 mL of 1% (wt/wt) Surfactant solution in deionized water and the volumetric is then filled to the mark with […] 3:1 CaCl2:MgCl2 solution and mixed well. The solution is transferred to a beaker and the pH adjusted to 8 by addition of a few drops of 0.1N NaOH or […]. The solution is then loaded into the tensiometer measurement cell and analyzed. Total time from addition of hardness to surfactant and start of analysis is less than 5 minutes.
IFT @ 1 uL/min Oil Flowrate,IFT @ 10 uL/min Oil Flowrate,IFT @ 99 uL/min Oil Flowrate,SMILES
0.17 mN/m,0.88 mN/m,4.83 mN/m,"CC(C)CCCC(C)CCCC(C)CCCOS(=O)(=O)[O-].[Na+] (stereo not drawn) [A AS, sodium salt of 4,8,12-trimethyltridecan-1-ol sulfate]"
0.35 mN/m,1.6 mN/m,6.14 mN/m,"CCC(CCCC(C)CCCC(C)C)CCOS(=O)(=O)[O-].[Na+] (stereo not drawn) [B AS, sodium salt of 3-ethyl-7,11-dimethyldodecan-1-ol sulfate]"
